The source of these data is patent US11787855B2, “Egg, fertilized egg, or embryo quality improving agent” (MPO, INC., priority 2016, dated 2023).

The test system of test [1] is fertilized eggs of aged mice. The test can be described thus: In vitro culture of aged mouse embryo, blastocyst reaching rate. Type of test: cell-based. The following applies: fertilized eggs of 42-week-old aged mice, different concentrations, cultured 4 days, control group vs drug treated group (FIG. 2). As for the experimental part:
(§1) Ovulated mature eggs were collected from 42-week-old aged mice and subjected to in vitro fertilization, the obtained fertilized egg (zygote) was in vitro cultured using a culture medium to which a neutralizing antibody of a candidate factor or an antagonist of a specific receptor was added, and the blastocyst reaching rate was determined in order to verify embryo development ability. The obtained blastocysts were embryo transplanted into pseudopregnant mice, for which the implantation rate and the offspring acquisition rate were examined, and the quality of embryos was further evaluated. Specifically, the experiment was carried out as follows.
ICR female mice (CLEA Japan, Inc., Tokyo, Japan) were used as laboratory animals. The mice were bred at a room temperature of 22° C. and a humidity of 55% under light and dark environments every 12 hours. MF control diet (Oriental Yeast Co., ltd., Tokyo, Japan) was given 6 g per mouse per day. Water was allowed to be freely ingested at any time. […]
Mice past 3 weeks and 42 weeks of age confirmed the sexual cycle by vaginal smear. […] After culturing, the sperm was removed from the egg in 30 μl KSOM Medium (Merck Millipore, Darmstadt, Germany), and the number of 2 cell stage embryos was calculated at that time. […] The blastocyst reaching rate was calculated as the number of blastocysts/the number of two cell stage embryos.

The subject of test [2] is blastocysts of aged mice transplanted into pseudopregnant mice. The test can be described thus: Embryo transplantation of aged mouse blastocysts into pseudopregnant mice, implantation rate and offspring acquisition rate. It counts as in vivo. The following applies: only antagonist 10 nM added (FIG. 4). As for the experimental part: as §1
After culturing for 4 days, an embryo reaching a blastocyst stage embryo was transplanted. Recipient mice were ICR female mice of 6 to 10 weeks of age, and mated with ICR male mice vasoligated on the day before a harvesting day, and an individual whose vaginal plug could be confirmed the next day was used. General anesthesia was given with somnopentyl anesthetic, and the uterus was exposed by a back dorsal incision. […] Implantation rate was calculated as the number of implantation traces/the number of embryo transplantations, and the offspring acquisition rate was calculated as the litter size/the number of implantation traces.

The test system of test [3] is aging markers (p16, p21, p53, PAI-1, IL-6) in young mouse embryos. The test can be described thus: Expression levels of aging markers in embryos by Realtime RT-PCR. It counts as cell-based. The following applies: embryos to which CXCL5 was added (n=30). As to the method:
In the in vitro culture system of young mouse embryo, whether or not there was a change in blastocyst reaching rate, implantation rate, offspring acquisition rate by adding the candidate factor was examined using a similar method to Example 2. Expression in the embryos of aging markers p16, p21, p53, PAI-1, and IL-6 was measured, and whether or not cell aging was induced was investigated. Specifically, the experiment was carried out as follows.
Expression levels of aging markers (p16, p21, p53, PAI-1, IL-6) in embryos to which CXCL5 was added (n=30) were measured using Realtime RT-PCR.

Test [4] relates to fertilized eggs of young mice. Nature of the test: In vitro culture of young mouse embryo with added CXCL5, blastocyst reaching rate. Type of test: cell-based. The following applies: vs non-added control group (FIG. 5). As to the method:
Mice past 3 weeks and 42 weeks of age confirmed the sexual cycle by vaginal smear. 10 IU of gonadotropin (ASKA Pharmaceutical. Co., Tokyo, Japan) was intraperitoneally administered at the time of proestrus. Cumulus oocyte complexes (COCs) were collected from a fallopian tube 15 hours after administration, and precultured for 30 minutes in 100 μl TYH medium (LSI Medience corporation, Tokyo, Japan). Meanwhile, ICR male mice (10-12 weeks old) were subjected to general anesthesia with somnopentyl anesthetic (Kyoritsuseiyaku Corporation, Tokyo, Japan), and cauda epididymis was extracted. A portion of the cauda epididymis was incised, and the internal sperm was extruded and collected. […] After culturing, the sperm was removed from the egg in 30 μl KSOM Medium (Merck Millipore, Darmstadt, Germany), and the number of 2 cell stage embryos was calculated at that time. […] The blastocyst reaching rate was calculated as the number of blastocysts/the number of two cell stage embryos.
In the in vitro culture system of young mouse embryo, whether or not there was a change in blastocyst reaching rate, implantation rate, offspring acquisition rate by adding the candidate factor was examined using a similar method to Example 2. Expression in the embryos of aging markers p16, p21, p53, PAI-1, and IL-6 was measured, and whether or not cell aging was induced was investigated. […]

The subject of test [5] is blastocysts of young mice transplanted into pseudopregnant mice. Nature of the test: Embryo transplantation of young mouse blastocysts obtained with added CXCL5 into pseudopregnant mice. Type of test: in vivo. An excerpt:
After culturing for 4 days, an embryo reaching a blastocyst stage embryo was transplanted. Recipient mice were ICR female mice of 6 to 10 weeks of age, and mated with ICR male mice vasoligated on the day before a harvesting day, and an individual whose vaginal plug could be confirmed the next day was used. General anesthesia was given with somnopentyl anesthetic, and the uterus was exposed by a back dorsal incision. The uterus was fixed with tweezers, a 30 G injection needle (Dentronics, Tokyo, Japan) was drilled at an oviduct joint, a glass capillary with blastocyst aspirated was inserted, and the embryo was transplanted into the uterus. After transplantation, the uterus was carefully returned to the body, and the retroperitoneum and the skin were sutured. At the time of transplantation, blastocysts obtained from mice of each group were transplanted into recipient mice for each individual. Cesarean section was carried out on the 19th day with the next day of egg collection as the first day. Recipient mice were euthanized and underwent laparotomy, and the uterus was extracted and the fetus was removed. Implantation rate was calculated as the number of implantation traces/the number of embryo transplantations, and the offspring acquisition rate was calculated as the litter size/the number of implantation traces.
Based on the method described in Example 2, blastocysts of the control group and the drug treated group were transplanted into pseudopregnant mice. The implantation rate and the offspring acquisition rate were then calculated.

[6] abbreviates: T-test *P<0.05 vs control (FIG. 7).
The mark [7] stands for this setting: heat-denatured CXCL5 1,000 nM vs control group.

On to `O=C(Nc1ccc([N+](=O)[O-])cc1O)Nc1ccccc1Br` [antagonist, SB225002], for which the blastocyst reaching rate result in test [1] is “no significant difference”. Also, in test [2], the implantation rate result is on record as “tended to be higher” and the offspring acquisition rate result is reported as “tended to be higher”.

As to “CXCL5: CXCL5 (ab9803, abcam), a chemokine, added to young mouse embryo culture”, in test [3] (setting [6]), the “expression level of IL-6” value is “significant increase”, the “expression level of PAI-1” value is recorded as “significant increase”, the “expression level of p21” value is listed as “significant increase” and the “expression level of p53” value was “significant increase”. The “expression level of p16” value in test [3] (vs control) is listed as “no significant difference”. Besides, the blastocyst reaching rate entry in test [4] (CXCL5 100 nM, 300 nM, 1,000 nM, cultured 4 days) is given as “not significantly different”. The offspring acquisition rate result in test [5] (CXCL5-added group vs control group (FIG. 6)) is given as “no significant difference”. The implantation rate result in test [5] (CXCL5-added group vs control, *P<0.05 (FIG. 6)) is “decreased”. Moreover, the implantation rate result in test [5] (CXCL5 added at 1,000 nM vs non-addition control group (FIG. 6)) is “a significant difference was observed”.

For the compound “heat-denatured CXCL5: CXCL5 (ab9803, abcam) heat-denatured (95° C., 5 min), used at 1,000 nM”, in test [4] (heat-denatured (95° C., 5 min) CXCL5 1,000 nM), the blastocyst reaching rate result is “not significantly different”. Moreover, in test [5] (setting [7]), the implantation rate entry is listed as “no significant difference” and the offspring acquisition rate result was “no significant difference”.
